Each structure is given as a SMILES string. Read-outs that look alike come from different tables or passages of the source. Bounds are passed on as bounds.

What is called IC90 is the concentration needed for an effect of 90%. Higher therefore signals weaker potency. As a reminder, the IC50 is the concentration needed to halve the response being measured.

A short description of data set [1]: Oral absorption in rats, serum concentration. The data set is classed as in vivo. The conditions noted are these: single oral dose 20 mg/kg in PEG400 by gavage, read-out: Compound concentration in serum. On the procedure:
The oral absorption of compound 13 was then measured in rats to determine bioavailability. The compound was administered by gavage to rats, as a single dose of 20 mg/kg in PEG400. Animals were sacrificed at different time points after administration, whole blood was collected and serum prepared by standard methods. Concentration of the compound in serum was determined by titrating the anti-HIV activity present in the sample according to the procedure described above.

The subject of another data set is HIV. The data set can be described thus: Anti-HIV activity in the presence of human serum proteins (HSA or AAG). The data set is classed as cell-based. On the procedure: HIV- or mock-infected MT4 cells were incubated for five days in the presence of various concentrations of the inhibitor. At the end of the incubation period, all HIV-infected cells have been killed by the replicating virus in the control cultures in the absence of any inhibitor. Cell viability is measured by measuring the concentration of MTT, a yellow, water soluble tetrazolium dye that is converted to a purple, water insoluble formazan in the mitochondria of living cells only. Upon solubilization of the resulting formazan crystals with isopropanol, the absorbance of the solution is monitored at 540 nm. The values correlate directly to the number of living cells remaining in the culture at the completion of the five day incubation. The inhibitory activity of the compound was monitored on the virus-infected cells and was expressed as IC50 and IC90. […]
Human serum proteins like albumin (HSA) or alpha-1 acid glycoprotein (AAG) are known to bind many drugs, resulting in a possible decrease in the effectiveness of those compounds. In order to determine whether compound 13 would be adversely effected by this binding, the anti-HIV activity of the compound was measured in the presence of physiological concentrations of HSA or AAG, thus evaluating the effect of the binding of the inhibitor to those proteins.

A further data set deals with HIV-1 strain LAI. Description: Cellular anti-HIV assay in MT4 cells (MTT). The data set is classed as cell-based. The conditions noted are these: for IC50: read-out: IC50. As to the method:
(§1) HIV- or mock-infected MT4 cells were incubated for five days in the presence of various concentrations of the inhibitor. At the end of the incubation period, all HIV-infected cells have been killed by the replicating virus in the control cultures in the absence of any inhibitor. Cell viability is measured by measuring the concentration of MTT, a yellow, water soluble tetrazolium dye that is converted to a purple, water insoluble formazan in the mitochondria of living cells only. Upon solubilization of the resulting formazan crystals with isopropanol, the absorbance of the solution is monitored at 540 nm. The values correlate directly to the number of living cells remaining in the culture at the completion of the five day incubation. The inhibitory activity of the compound was monitored on the virus-infected cells and was expressed as IC50 and IC90. These values represent the amount of the compound required to protect 50% and 90%, respectively, of the cells from the cytopathogenic effect of the virus. The toxicity of the compound was measured on the mock-infected cells and was expressed as CC50, which represents the concentration of compound required to inhibit the growth of the cells by 50%. The select index (SI) (ratio CC50/IC50) is an indication of the selectivity of the anti-HIV activity of the inhibitor.

The next data set concerns HIV strain r13027. Description: Antiviral spectrum, protease inhibitor resistant strain. The format is cell-based. The conditions noted are these: L10M/I, K20R, M36I, L63P, A71V, G73S, V77I, I84V, L90M. As to the method: as §1
(§2) Because of the increasing emergence of drug resistant HIV strains, compound 13 and compound 14 were tested for its potency against HIV strains harbouring several mutations. These mutations are associated with resistance to protease inhibitors and result in viruses that show various degrees of phenotypic cross-resistance to five of the currently commercially available drugs (Saquinavir, Ritonavir, Nelfinavir, Indinavir and Amprenavir).

A further data set relates to HIV strain r13030. Described as above. The data set is classed as cell-based. The note with it: L10V/I, M36I, I54V, L63P, A71V, V82T, L90M. As to the method:
as §1, §2

Another data set has as its system HIV strain r13037. Described as above. The format is cell-based. The conditions noted are these: L10I, M46I, I54V, L63P, A71T, V77I, V82A, L90M. On the procedure: as §1, §2
The subject of another data set is HIV strain r13035. The description is as above. The data set is classed as cell-based. The conditions noted are these: D30N, L63P, V77I, N88D. As to the method: as §1, §2
Another data set concerns HIV strain r13023. Described as above. The format is cell-based. The note with it: L10I, M36I/M, I54V/I, L63P, A71V, G73S, I84V, L90M. As to the method: as §1, §2
For another data set, the system named is HIV strain r13021. Described as above. The data set is classed as cell-based. The note with it: L10I, K20R, L24I, M36I, I54V, L63P, A71V, V82T, I84V. As to the method:
as §1, §2

Another data set has as its system HIV strain r13025. The data set is described as above. The format is cell-based. The note with it: L10I, M46I, L63P, A71V, I84V. On the procedure: as §1, §2
The subject of the next data set is HIV strain r13029. The description is as above. The data set is classed as cell-based. The conditions noted are these: L10I/L, M36I, M46L, L63P, A71V, I84V, N88D, L90M. As to the method:
as §1, §2

The next data set has as its system HIV strain r13036. The description is as above. The data set is classed as cell-based. The conditions noted are these: L10I, L63P, A71V, G73S, L90M. On the procedure: as §1, §2
The next data set relates to HIV strain r13022. The data set is described as above. The data set is classed as cell-based. The conditions noted are these: K20R, M36I, M46I/M, 154V, L63P, A71V/I, V82T, L90M. On the procedure: as §1, §2
Another data set relates to HIV strain r13031. The description is as above. The data set is classed as cell-based. The conditions noted are these: G48V, I54V, V77I, V82A, L90M/L. On the procedure: as §1, §2
The subject of a further data set is HIV strain r13024. The description is as above. The data set is classed as cell-based. The conditions noted are these: L10I, M36I, L63P, A71V, G73S, I84V, L90M. On the procedure:
as §1, §2

The test system of the next data set is HIV strain r13033. The data set is described as above. The format is cell-based. The conditions noted are these: L10I, M46L, I54V, L63P, A71V, V82A, L90M. As to the method: as §1, §2
A further data set concerns HIV strain r13034. Described as above. The data set is classed as cell-based. The conditions noted are these: L10I, M36I, I54V, L63P, A71V, I84V. As to the method: as §1, §2
Another data set deals with HIV strain r13026. Described as above. The data set is classed as cell-based. The conditions noted are these: Human immunodeficiency virus 1, strain r13026; L10I, M46I, I54V, L63P, A71V, V82T, I84V. On the procedure: as §1, §2
The subject of a further data set is HIV strain r13020. The data set is described as above. The format is cell-based. The conditions noted are these: Human immunodeficiency virus 1, strain r13020; L10I, K20R, M36I, 154V, A71V, V82T, 184V. As to the method:
as §1, §2

As for `CC(C)CN(CC(O)C(Cc1ccccc1)NC(=O)OC1COC2OCCC12)S(=O)(=O)c1ccc2c(c1)OCO2` (stereo not drawn) [Compound 13, hexahydrofuro[2,3-b]furan-3-yl-N-{3-[(1,3-benzodioxol-5-ylsufonyl)(isobutyl)amino]-1-benzyl-2-hydroxypropyl}carbamate], the concentration at 0 min in data set [1] (rat, serum, po, 20 mg/kg, 0 minutes after administration) is 0 nM. Moreover, in data set [1] (rat, serum, po, 20 mg/kg, 60 minutes after administration), the concentration at 60 min was determined as 1000 nM. Further, the concentration at 180 min in data set [1] (rat, serum, po, 20 mg/kg, 180 minutes after administration) is 687 nM. Further, the concentration at 300 min in data set [1] (rat, serum, po, 20 mg/kg, 300 minutes after administration) amounted to 216 nM; in data set [1] (60 minutes after administration), 985.8 nM. Moreover, the “decrease of the potency” value in the data set with HIV (AAG at a concentration of 2 mg/ml) is reported as “two to four”. Further, the “effect on the potency” value with HIV (HSA at a concentration of 45 mg/ml) is “no effect”. The “SI (ratio CC50/IC50)” value with HIV-1 strain LAI (CC50 on mock-infected MT4 cells / IC50 on HIV-1 LAI) is 13,900. In the data set on HIV-1 strain LAI (Human immunodeficiency virus 1, 120 h, HIV-1 strain LAI, MT4 cells, five days, median value of 12 determinations), this molecule gave an IC90 of 2.4 nM. Moreover, the IC50 was 1.1 nM in the data set with HIV-1 strain LAI (Human immunodeficiency virus 1, MT4, 120 h, HIV-1 strain LAI, MT4 cells, five days); 1.4 nM in the data set with HIV-1 strain LAI (strain LAI); 7.4 nM in the data set on HIV strain r13027 (strain r13027); 0.4 nM with HIV strain r13030 (strain r13030); 0.3 nM in the data set with HIV strain r13037 (strain r13037); 0.3 nM in the data set on HIV strain r13035 (strain r13035). Further, the IC50 is 6.8 nM with HIV strain r13023 (strain r13023); 5.5 nM in the data set on HIV strain r13021 (strain r13021); 45.4 nM in the data set on HIV strain r13025 (strain r13025); 7 nM with HIV strain r13029 (strain r13029); 5.4 nM in the data set on HIV strain r13036 (strain r13036); 1.7 nM with HIV strain r13022 (strain r13022). Also, the IC50 was found to be 0.5 nM in the data set with HIV strain r13031 (strain r13031), 8.1 nM in the data set with HIV strain r13024 (strain r13024), 1.7 nM with HIV strain r13033 (strain r13033) and 8 nM in the data set on HIV strain r13034 (strain r13034).

Turning to `CC(C)c1nc(CN(C)C(=O)N[C@H](C(=O)N[C@@H](Cc2ccccc2)C[C@H](O)[C@H](Cc2ccccc2)NC(=O)OCc2cncs2)C(C)C)cs1` [RIT, Ritonavir], the IC50 was 30.4 nM with HIV-1 strain LAI (Human immunodeficiency virus 1, MT4, strain LAI); greater than 10 µM with HIV strain r13026; 3140 nM with HIV strain r13027 (Human immunodeficiency virus 1, strain r13027); 2990 nM in the data set with HIV strain r13030 (Human immunodeficiency virus 1, strain r13030); 2720 nM in the data set with HIV strain r13037 (Human immunodeficiency virus 1, strain r13037); 31.1 nM with HIV strain r13035 (Human immunodeficiency virus 1, strain r13035). In addition, the IC50 in the data set on HIV strain r13023 (Human immunodeficiency virus 1, strain r13023) is 3820 nM; with HIV strain r13021 (Human immunodeficiency virus 1, strain r13021), greater than 10000 nM; in the data set on HIV strain r13025 (Human immunodeficiency virus 1, strain r13025) it was 2240 nM; with HIV strain r13029 (Human immunodeficiency virus 1, strain r13029), 3600 nM; in the data set with HIV strain r13036 (Human immunodeficiency virus 1, strain r13036), 2830 nM; in the data set on HIV strain r13020, 9.28 µM. The IC50 is greater than 10000 nM with HIV strain r13022 (Human immunodeficiency virus 1, strain r13022); 856 nM in the data set with HIV strain r13031 (Human immunodeficiency virus 1, strain r13031); 2850 nM with HIV strain r13024 (Human immunodeficiency virus 1, strain r13024); 3470 nM with HIV strain r13033 (Human immunodeficiency virus 1, strain r13033); greater than 10000 nM in the data set with HIV strain r13034 (Human immunodeficiency virus 1, strain r13034).
